Consider four compounds from US5652363A, “Pyrido-1,4-oxazinylalkyl-benzamide derivatives” (C.D. Searle & Co., priority 1996, dated 1997).

SMILES strings stand for the structures.

For this assay, the target named is T1, PAF receptor (Homo sapiens, UniProt P25105).
T1 construct: tissue Lifesource, Inc. (Glenview, Ill.); host or cells: human platelets (membrane preparation)
T1 sequence (P25105 whole entry): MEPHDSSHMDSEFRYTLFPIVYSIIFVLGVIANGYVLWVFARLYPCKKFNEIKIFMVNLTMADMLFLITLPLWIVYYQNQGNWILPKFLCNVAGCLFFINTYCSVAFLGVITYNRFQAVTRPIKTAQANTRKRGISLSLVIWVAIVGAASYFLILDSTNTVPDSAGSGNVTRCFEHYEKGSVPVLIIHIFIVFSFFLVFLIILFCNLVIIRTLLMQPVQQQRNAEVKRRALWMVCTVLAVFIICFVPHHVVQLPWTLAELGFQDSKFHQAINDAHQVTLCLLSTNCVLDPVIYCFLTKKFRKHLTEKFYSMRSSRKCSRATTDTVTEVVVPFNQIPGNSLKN
Put plainly: Human Platelet Receptor Binding Assay ([3H]PAF binding to human platelet membrane preparation). To be noted: inhibition of specific binding of 0.75 nM [3H]PAF to human platelet membranes, 30 minutes at 24° C.; read-out: PAF Inhibitor Activity Human Platelet Receptor Assay. As for the experimental part:
Human Platelet Receptor Binding Assay
Compounds of the invention were evaluated for their ability to inhibit specific binding of [^3 H]PAF to human platelet membrane preparation. Human packed platelets were obtained from Lifesource, Inc. (Glenview, Ill.) and washed 3 times with 10 mM Trizma pH 7.0, 2 mM EDTA (dipotassium salt), 150 mM KCl and then once with 10 mM Trizma 7.4, 20 mM CaCl2. The platelets were broken by freezing in a dry ice-ethanol bath, followed by thawing in 24° C. water baths. The preparation was centrifuged (40,000×g, 20 minutes, 4° C.) and the pellet suspended in 10 mM Trizma 7.4, 20 mM CaCl2, 5 mg/ml human albumin. Protein concentration in the platelet membrane preparation was determined by the Lowry method [O. H. Lowry et al., J. Biol. Chem., 193, 265-275 (1951)]. Aliquots of the membrane preparation were stored at -70° C. Each preparation was characterized for PAF receptor number and dissociation constant (Kd). In binding assays 5 μl of test compound, solubilized in DMSO, was added to polypropylene tubes along with 0.75 nM [^3 H]PAF and 200 mcl [0.075 nM] of membranes and 95 μl 10 mM Trizma 7.4, 20 mM CaCl2, 5 mg/ml human albumin-Tubes were incubated for 30 minutes at 24° C. The incubation was terminated by adding 4 ml of ice-cold 10 mM Trizma pH 7.4, 20 mM CaCl2 and 20 mg/ml BSA prior to vacuum filtration using Whatman GF/C filters. Filters were prepared and counted in a scintillation counter. All DPM values (disintergrations per minute) were corrected for background and isotope decay. Triplicate determinations for single doses were averaged. The amount of non-specific binding was subtracted from all dose averages, giving an amount of specific binding in all cases. The IC50 values for the compounds of the invention were determined by the Allfit program using percent displacement data. (Allfit is a `basic` computer program for simultaneous curve fitting of a family of signoidal dose-response curves using the four parameter logistic equation.) Results are shown in Table I. In Table 1 "c-pent" means cyclopentyl; "c-hex" means cyclohexyl; "i-Pr" means isopropyl; "Me" means methyl; and "OMe" means methoxy.
Regarding `Cc1cc(C(=O)N(C2CCCCC2)C2CCCC2)ccc1CN1CCOc2cnccc21` [Example 10, N-cyclohexyl-N-cyclopentyl-4-[(2,3-dihydro-1H-pyrido[3,4-b][1,4]oxazin-1-yl)methyl]-3-methyl-benzamide], the IC50 came to 219 nM. The figure for `COc1cc(CN2CCOc3cnccc32)ccc1C(=O)N(C1CCCC1)[C@@H]1C[C@H](C)C[C@H](C)C1` [Example 9] is 163 nM. The figure for `CC(C)N(C(=O)c1ccc(CN2CCOc3cnccc32)c(Br)c1)C1CCCCC1` [Example 11, 3-bromo-N-cyclohexyl-4-[(2,3-dihydro-1H-pyrido[3,4-b]-[1,4]oxazin-1-yl)methyl]-N-(1-methylethyl)benzamide] is 2 nM; for `COc1cc(C(=O)N(C(C)C)C2CCCCC2)ccc1CN1C(=O)COc2ncccc21` [Example 17, N-cyclohexyl-4-[{2,3-dihydro-2-oxo-1H-pyrido(2,3-b)(1,4)oxazin-1-yl}methyl]-3-methoxy-N-(1-methylethyl)benzamide] it is 505 nM.
